Assay results reported in patent US4980343A, “Aminooxodihydroisoindoloquinazoline carcinostatic agents” (Bayer Aktiengesellschaft, priority 1989, dated 1990).
Values after ≈ are worked out from the molar mass of the structure shown. “Also recorded” adds a separate entry of the source. Counter-ions that a name gives are not always drawn.

Tests used:
[1] = stability of B in the presence of peptidases or human plasma; type: in vitro ADME; conditions: not cleaved back to A
E. coli Neumann [2] = experiment: therapeutic efficacy: survival of female CF1 mice infected intraperitoneally with E. coli Neumann; type: in vivo; conditions: for survival of the animals (number of 10 mice): single dose 30 min. after infection, until sixth day
Experimental: To measure the therapeutic efficacy, 10 female CF1 mice each group were infected by intraperitoneal injection of 3×10^7 cells of E. coli Neumann. For treatment, one single dose of drug was given intravenously 30 min. after the infection. The survival of the animals was recorded daily until the sixth day after infection: […]

E. coli Neumann [3] = experiment: minimal inhibitory concentrations (MICs) by agar dilution method; type: cell-based
Experimental: The minimal inhibitory concentrations (MICs) were determined by agar dilution method. Series of agar plates with Iso-Sensitest agar (Oxoid) were prepared which contained the test substances at twofold increasing concentrations. The agar plates were inoculated by using a multipoint inoculator (Denley). For this purpose, overnight cultures of the bacterial test strains were diluted appropriately so that each inoculation point contained approx. 10^4 cells. The inoculated agar plates were incubated at 37° C. and bacterial growth was read after 20 hours.

[4] = solubility in water and water containing solvents; conditions: for solubility: water
[5] = stability of 4, 6 and 12 in mice plasma at 37° C.; type: in vitro ADME; conditions: for hydrolysis to 1: mice plasma; for kobs / half-life: mice, heparin; for half-life: mouse, plasma
Experimental: (§1) A solution of approximately 2.0 mg of 4, 6 or 12 in 100 μl of water was added to 2 ml of either human or mice plasma. The resulting solution was placed in water bath at 37° C. Samples were withdrawn at appropriate time intervals and proteins were precipitated with 250 μl of acetonitrile, vortexed for 30 sec., then centrifuged for 10 min at 2200 rpm. […] Apparent first-order rate constants were obtained by plotting the disappearance the derivatives 4, 6 or 12 versus time on semilogarithmic plot and the results are shown in table 12.

[6] = stability of 4, 6 or 12 in aqueous buffered solutions (μ = 0.15); type: physicochemical
Experimental: The hydrolysis of 4, 6 or 12 in aqueous buffered solutions at various pH and at an ionic strength of 0.15 (NaCl) were measured by analyzing aliquots at appropriate intervals using HPLC. In the HPLC analysis both the disappearance of 4, 6 or 12 and the appearance of 1 were monitored. Rate constants were calculated from the first-order plots of the disappearance of 4, 6 or 12 versus time.

[7] = stability of 4, 6 and 12 in human plasma at 37° C.; type: in vitro ADME; conditions: for hydrolysis to 1: human plasma; for half-life: plasma
Experimental: as §1

[8] = hydrolysis of 14 and 4a in human plasma at 37.0° C.; type: in vitro ADME
Experimental: (§2) The hydrolysis of 14 in human plasma was studied. A solution containing 2.0 mg of 14 in 200 μl of water was mixed with 2 ml of human plasma (sodium citrate was used as anticoagulant). The resulting mixture was placed in water bath at 37.0° C. Samples were withdrawn at appropriate time intervals and proteins were precipitated with 250 μl of acetonitrile, vortexed for 30 sec, the centrifuged for 15 min at 2200 rpm. A 100 μl sample of the supernatent was mixed with 250 μl of H2 O and the resulting solution was analyzed by HPLC. […] The chemical hydrolysis of 14 (5.5×10^-5 M) in 0.05M phosphate buffer pH 7.4 and ionic strength of 0.15M (NaCl) at 37.0° C. was studied. Samples were withdrawn and analyzed at appropriate time intervals.

[9] = chemical hydrolysis of 14 in 0.05M phosphate buffer pH 7.4 at 37.0° C.; type: physicochemical; conditions: 5.5×10^-5 M, 0.05M phosphate pH 7.4, ionic strength 0.15M (NaCl)
Experimental: as §2

[10] = Acetate (0.05M), 25° C., pH 5.0, initial conc. 0.024 (4, 12), 0.018 (6) mg/ml
[11] = Phosphate (0.05M), 37° C., pH 7.4, initial conc. 0.02 mg/ml
[12] = acetate buffer (0.05m), pH 5, Acetate (0.05M), 25° C., pH 5.0, initial conc. 0.024 (4, 12), 0.018 (6) mg/ml, 6 and 12 estimated values (*)
[13] = phosphate buffer (0.05m), pH 7.4, Phosphate (0.05M), 25° C., pH 7.4, initial conc. 0.02 mg/ml, 4 estimated value (*)
[14] = phosphate buffer (0.05m), pH 7.4, Phosphate (0.05M), 37° C., pH 7.4, initial conc. 0.02 mg/ml
[15] = water, pH 4.5, Water, 25° C., initial conc. 10.0 mg/ml, pH 4.5 (4), 4.31 (6), 4.54 (12), estimated values (*)
[16] = water, pH 5.9, Water, 25° C., initial conc. 0.1 mg/ml, pH 5.9 (4), 5.46 (6), 6.1 (12), estimated values (*)
[17] = Phosphate (0.05M), 25° C., pH 7.4, initial conc. 0.02 mg/ml
[18] = Water, 25° C., initial conc. 0.1 mg/ml, pH 5.46 (6), 6.1 (12)
[19] = Water, 25° C., initial conc. 10.0 mg/ml, pH 4.31 (6), 4.54 (12)
[20] = concentration of obtainable aqueous solutions, hydrochloric acid salts (Example 5)

Row | Structure (SMILES) | hydrolysis to 1 [5] | half-life [5] [h] | half-life [6, 12] [days] | half-life [6, 13] [days] | half-life [6, 14] [days] | half-life [6, 15] [days] | half-life [6, 16] [days] | hydrolysis to 1 [7] | kobs [5] [min⁻¹] | kobs [6, 10] [h⁻¹] | kobs [6, 11] [h⁻¹] | other results
1 | CC(N)C(=O)N1CCN(c2cc3c(cc2F)c(=O)c(C(=O)O)cn3C2CC2)CC1 (centres unmarked) [B] |  |  |  |  |  |  |  |  |  |  |  | stability in the presence of peptidases or human plasma [1]: stable; survival of the animals (number of 10 mice) (E. coli Neumann [2]; 0.06 mg/kg i.v.): 0; survival of the animals (number of 10 mice) (E. coli Neumann [2]; 0.25 mg/kg i.v.): 1; survival of the animals (number of 10 mice) (E. coli Neumann [2]; 0.5 mg/kg i.v.): 1; effectiveness against E. coli Neumann in vivo (E. coli Neumann [2]; in words): only poorly effective; MIC (E. coli Neumann [3]; Escherichia coli, E. coli Neumann, agar dilution, Iso-Sensitest agar, 37° C., 20 hours): 0.5 µg/mL (≈ 1.24 µM); effectiveness against E. coli Neumann in vitro (E. coli Neumann [3]; in words): only poorly effective
2 | Nc1ccc2c(c1)CN1C(=O)c3ccccc3C1=N2 [Compound 1, aminooxodihydroisoindoloquinazoline] |  |  |  |  |  |  |  |  |  |  |  | solubility in water (in words) ([4]; water containing solvents): only poorly soluble; also recorded: nearly insoluble
3 | C[C@H](N)C(=O)Nc1ccc2c(c1)CN1C(=O)c3ccccc3C1=N2 [Compound 4a, N-l-alanyl-AQ] |  |  |  |  |  |  |  |  |  |  |  | half-life ([8]; human plasma, FIG. 1, 4a formed from 14): ~0.333 h
4 | NCCCC[C@H](N)C(=O)Nc1ccc2c(c1)CN1C(=O)c3ccccc3C1=N2 [Compound 12, N-l-lysine dihydrochloride derivative of AQ] | quantitative hydrolysis | 2.43 | 25 | 11.2 | 2.8 | 108 | 37 | quantitative hydrolysis | 0.0048 | 0.00115 | 0.0103 | kobs [6, 17]: 0.00258 h⁻¹; kobs [6, 18]: 0.00078 h⁻¹; kobs [6, 19]: 0.000267 h⁻¹; kobs ([7]; human, citrate): 0.005 min⁻¹; half-life ([7]; human, citrate): 2.31 h; solubility [4, 20]: > 25 mg/mL; solubility ([4]; water solubility, dihydrochloride, freeze dried (Example 3)): > 20 mg/mL
5 | C[C@H](NC(=O)CN)C(=O)Nc1ccc2c(c1)CN1C(=O)c3ccccc3C1=N2 [Compound 14, L-Gly-Ala-derivative of AQ] |  |  |  |  |  |  |  |  |  |  |  | half-life at 55 µM [9]: 60 h; half-life ([8]; human plasma (citrate), 2.0 mg of 14 in 200 μl water + 2 ml plasma, read-out: half life of hydrolysis of 14 to 4a): 0.233 ± 0.0167 h

The next lines start with results.

Row | hydrolysis to 1 [5] | half-life [5] [h] | half-life [6, 12] [days] | half-life [6, 13] [days] | half-life [6, 14] [days] | half-life [6, 15] [days] | half-life [6, 16] [days] | hydrolysis to 1 [7] | Structure (SMILES) | kobs [5] [min⁻¹] | kobs [6, 10] [h⁻¹] | kobs [6, 11] [h⁻¹] | other results
6 | quantitative hydrolysis | 0.355 | 17.8 | > 8.33 | 6.58 | > 20 | > 20 | quantitative hydrolysis | C[C@H](N)C(=O)Nc1ccc2c(c1)CN1C(=O)c3ccccc3C1=N2 [Compound 4, N-l-alanyl-AQ-monohydrochloride] | 0.033 | 0.0016 | 0.0044 | kobs ([7]; human 1, citrate): 0.025 min⁻¹; kobs ([7]; human 2, citrate): 0.022 min⁻¹; half-life ([7]; human, human 1, citrate): 0.46 h; half-life ([7]; human, human 2, citrate): 0.512 h; solubility ([4]; solubility in water, hydrochloric acid salt, water (Example 5)): > 25 mg/mL
7 | quantitative hydrolysis | 0.623 | 26 | 7.03 | 3.36 | 198 | 47 | quantitative hydrolysis | CC(C)C[C@H](N)C(=O)Nc1ccc2c(c1)CN1C(=O)c3ccccc3C1=N2 [Compound 6, N-l-leucine derivative of AQ] | 0.0185 | 0.0011 | 0.0086 | kobs [6, 17]: 0.00411 h⁻¹; kobs [6, 18]: 0.00061 h⁻¹; kobs [6, 19]: 0.000146 h⁻¹; kobs ([7]; human, citrate): 0.0057 min⁻¹; half-life ([7]; human, citrate): 2.02 h; solubility [4, 20]: > 25 mg/mL
